# Laboratory results from ChEMBL document CHEMBL5727535, “NK-3 receptor selective antagonist compounds, pharmaceutical composition and methods for use in NK-3 receptors mediated disorders” (2020).
# Target: T1, Neuromedin-K receptor (Homo sapiens, UniProt P29371)
# T1 sequence (P29371 whole entry): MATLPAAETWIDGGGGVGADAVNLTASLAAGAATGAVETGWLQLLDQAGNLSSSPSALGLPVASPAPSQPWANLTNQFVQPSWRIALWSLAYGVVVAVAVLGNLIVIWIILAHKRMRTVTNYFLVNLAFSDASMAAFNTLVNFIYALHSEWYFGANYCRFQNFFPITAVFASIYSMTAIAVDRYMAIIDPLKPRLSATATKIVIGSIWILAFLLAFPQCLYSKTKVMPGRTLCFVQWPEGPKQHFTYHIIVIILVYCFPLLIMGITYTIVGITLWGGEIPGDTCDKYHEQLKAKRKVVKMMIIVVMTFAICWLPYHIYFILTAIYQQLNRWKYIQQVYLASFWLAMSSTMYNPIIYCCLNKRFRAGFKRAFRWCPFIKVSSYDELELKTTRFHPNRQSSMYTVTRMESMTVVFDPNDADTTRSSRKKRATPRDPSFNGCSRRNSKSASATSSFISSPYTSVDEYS
# Test: 3H-SB222200 Binding Competition Assay with Human NK-3 Receptor: The ability of the compounds of the invention to inhibit the binding of the NK-3 receptor selective antagonist SB222200 was assessed by an in vitro radioligand binding assay. Membranes were prepared from Chinese hamster ovary recombinant cells which express the human NK3 receptor. The membranes were incubated with 5 nM 3H-SB222200_(ARC) in a HEPES 25 mM/NaCl 0.1M/CaCl2 1 mM/MgCl2 5 Mm/BSA 0.5%/Saponin 10 μg/ml buffer at pH 7.4 and various concentrations of the compounds of the invention. The amount of tritiated SB222200 bound to the receptor was determined after filtration by the quantification of membrane associated radioactivity using the TopCount-NXT reader (Packard). Competition curves were obtained for compounds of the invention and the concentrations of compounds which displaced 50% of bound radioligand (IC50) were determined and then apparent inhibition constant Ki values were calculated by the following equation: Ki=IC50/(1+[L]/KD) where [L] is the concentration of free radioligand and KD is its dissociation constant at the receptor, derived from saturation binding experiments (Cheng and Prusoff, 1973).
row,Ki,SMILES
1,< 0.5 µM,O=C(c1ccc(F)cc1)N1CCn2c(nnc2-c2csc(-c3ccc(Cl)cc3Cl)n2)C1
2,< 0.5 µM,O=C(c1ccc(-c2cccs2)cc1)N1CCn2c(nnc2-c2csc(-c3ccccc3Cl)n2)C1
3,< 0.5 µM,CC1c2nnc(-c3csc(-c4ccc(F)cc4)n3)n2CCN1C(=O)c1ccc(F)c(Cl)c1 (stereo not drawn)
4,< 0.5 µM,CC1c2nnc(-c3csc(-c4ccc(F)cc4)n3)n2CCN1C(=O)c1ccc(Cl)c(F)c1 (stereo not drawn)
5,< 0.5 µM,O=C(c1ccc(F)cc1)N1CCn2c(nnc2-c2csc(-c3ccccc3Cl)n2)C1
6,< 0.5 µM,O=C(c1ccc(-c2cccs2)cc1)N1CCn2c(nnc2-c2csc(-c3ccc(Br)cc3)n2)C1
7,< 0.5 µM,O=C(c1ccc(F)cc1)N1CCn2c(nnc2-c2csc(-c3cc(Cl)cc(Cl)c3)n2)C1
8,< 0.5 µM,C[C@@H]1c2nnc(-c3csc(-c4ccc(Cl)cc4)n3)n2CCN1C(=O)c1ccc(F)cc1
9,< 0.5 µM,CC1c2nnc(-c3csc(-c4ccc(F)cc4)n3)n2CCN1C(=O)c1ccc(Cl)c(Cl)c1 (stereo not drawn)
10,< 0.5 µM,O=C(c1ccc(F)cc1)N1CCn2c(nnc2-c2ccc(Cl)cn2)C1
11,< 0.5 µM,O=C(c1ccc(F)cc1)N1CCn2c(nnc2-c2csc(-c3ccc(Cl)cc3)n2)C1
12,< 0.5 µM,O=C(c1ccc(-c2ccccc2)cc1)N1CCn2c(nnc2-c2csc(-c3ccccc3Cl)n2)C1
13,< 0.5 µM,O=C(c1ccc(F)cc1)N1CCn2c(nnc2-c2csc(-c3cccc(Cl)c3)n2)C1
14,< 0.5 µM,CC1c2nnc(-c3csc(-c4ccccc4Cl)n3)n2CCN1C(=O)c1ccc(F)cc1 (stereo not drawn)
15,< 0.5 µM,O=C(c1ccc(F)cc1)N1CCn2c(nnc2-c2csc(-c3ccc(Br)cc3)n2)C1
16,> 5 µM,Cn1nc(C(=O)N2CCn3c(nnc3-c3ccccn3)C2)cc1-c1ccc(Cl)cc1
17,< 0.5 µM,O=C(c1ccc(F)cc1)N1CCn2c(nnc2-c2csc(-c3cccc(Cl)c3Cl)n2)C1
18,< 0.5 µM,O=C(c1ccc(-c2cccs2)cc1)N1CCn2c(nnc2-c2csc(Cc3ccc(Cl)cc3)n2)C1
